From patent publication US11530244B2, “Cyclic polypeptides for PCSK9 inhibition” (priority 2018, dated 2022)
Starred links: 1 amine or outer side, 2 acyl side, 3 side chain; linkers in the order of their positions; H or OH if unused. Positions of bridges follow the written chain, without caps; N, C: chain ends. Non-standard residues stand in square brackets, D forms with d. Residues, ends and D or L forms follow the SMILES beside them. Groups on a side chain read outwards from the residue. *: point of attachment. X50 = C[C@@H](N[*:1])C(=O)C[C@@H](Cc1c[nH]c2ccc(F)cc12)C(=O)[*:2]; NHCH2C6H4(p)CH2CH2NH = c1cc(CN[*:1])ccc1CCN[*:2]; Trp(5-F) = N[C@@H](Cc1c[nH]c2ccc(F)cc12)C(=O)O; Phe(4-CH2NH2) = NCc1ccc(C[C@H](N)C(=O)O)cc1; X45 = O=C(CCC(=O)[*:1])NCc1ccc(CCN[*:2])cc1; Pro(cis-4-F) = O=C(O)[C@@H]1C[C@H](F)CN1; X4 = O=C(CCSCc1cccc(CSCCN[*:1])c1)[*:2]; γGlu = O=C(O)[C@H](CCC(=O)[*:2])N[*:1]; mXylylene = c1cc(C[*:1])cc(C[*:2])c1; AEF = NCCOc1ccc(C[C@H](N)C(=O)O)cc1; Glutaryl = O=C(CCCC(=O)[*:2])[*:1]; Palmitoyl = CCCCCCCCCCCCCCCC(=O)*; X44 = O=C(C[*:2])NCCCC(=O)[*:1]; aThr = C[C@H](O)[C@H](N)C(=O)O; Suc = O=C(CCC(=O)[*:2])[*:1]; αMeP = C[C@@]1(C(=O)O)CCCN1; AEEA = NCCOCCOCC(=O)O; X37 = O=C(CC1CC1)*; Mpa = O=C(O)CCS

Tests used:
PCSK9 [1] = target: T1, PCSK9 (Homo sapiens (Human), UniProt Q8NBP7); experiment: PCSK9 Alexa FRET Standard assay (displacement of AlexaFluor647 tagged cyclic peptide Reagent A); assay type: binding; conditions: PCSK9 Alexa FRET Standard assay, 0.5 nM PCSK9, 20 nM AF cyclic peptide Reagent A; read-out: IC50
T1 sequence (Q8NBP7 153-692): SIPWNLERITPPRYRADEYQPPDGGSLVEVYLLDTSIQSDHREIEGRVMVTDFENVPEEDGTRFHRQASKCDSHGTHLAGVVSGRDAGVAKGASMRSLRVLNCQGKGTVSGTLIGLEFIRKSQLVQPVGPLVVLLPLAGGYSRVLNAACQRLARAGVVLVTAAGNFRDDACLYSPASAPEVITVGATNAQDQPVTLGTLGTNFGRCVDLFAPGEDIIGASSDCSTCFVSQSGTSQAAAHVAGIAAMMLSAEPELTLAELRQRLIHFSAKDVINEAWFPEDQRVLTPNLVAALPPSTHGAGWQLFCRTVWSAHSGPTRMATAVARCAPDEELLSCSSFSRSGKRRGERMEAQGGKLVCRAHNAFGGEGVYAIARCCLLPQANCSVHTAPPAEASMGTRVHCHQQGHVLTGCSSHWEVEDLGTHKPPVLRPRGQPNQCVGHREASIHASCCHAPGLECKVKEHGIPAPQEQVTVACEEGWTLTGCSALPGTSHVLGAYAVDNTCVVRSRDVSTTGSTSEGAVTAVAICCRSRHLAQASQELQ
How it was run: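 TR-FRET displacement: 0.5 nM biotinylated PCSK9 with 1.25 nM Strep-Eu and 20 nM AlexaFluor-tagged cyclic peptide (final) in 50 mM HEPES pH 7.4, 0.15 M NaCl, 5 mM CaCl2, 0.01% BSA, 0.01% P20, ≥2 h at room temperature. IC50 from sigmoidal fit, converted to Ki via peptide KD; falling Eu counts flagged false positives.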

PCSK9 [2] = target: T1, PCSK9; experiment: PCSK9 Alexa FRET Plus assay (displacement of AlexaFluor647 tagged cyclic peptide Reagent B); assay type: binding; conditions: 0.5 nM PCSK9, 960 nM AF cyclic peptide Reagent B
How it was run: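 TR-FRET displacement with final 0.5 nM biotinylated PCSK9, 1.25 nM Strep-Eu and 960 nM AlexaFluor-tagged cyclic peptide in HEPES pH 7.4, NaCl, CaCl2, BSA, P20; ≥2 h at room temperature. IC50 from sigmoidal fit, converted to Ki using peptide KD. Falling europium counts flagged false positives.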

[3] = Alexa FRET Plus, read-out: IC50

C[C@@]12CCCN1C(=O)[C@H](Cc1ccc(O)cc1)NC(=O)CN1C(=O)[C@@H](CCc3ccccc31)NC(=O)[C@H](Cc1c[nH]c3ccc(F)cc13)NC(=O)[C@H](Cc1c[nH]c3ccc(F)cc13)NC(=O)CNC(=O)[C@H](CCCCN)NC(=O)CCSCc1cccc(c1)CSC[C@@H](C(N)=O)NC2=O [Compound 109]
IC50 (PCSK9 [1]): 0.11 to 100 nM
IC50 (PCSK9 [2]; [3]): 100 to 500 nM

COc1ccc(C[C@@H]2NC(=O)[C@H]([C@@H](C)O)NC(=O)[C@@H]3C[C@H](F)CN3C(=O)[C@H](Cc3c[nH]c4ccc(F)cc34)NC(=O)[C@H](Cc3c[nH]c4ccc(F)cc34)NC(=O)[C@@H](C)NC(=O)CNC(=O)[C@@H](NC(C)=O)CCNCc3ccc(cc3)C[C@@H](C(N)=O)NC(=O)[C@]3(C)CCCN3C2=O)cc1 [Compound 102]
IC50 (PCSK9 [1]): 0.11 to 100 nM
IC50 (PCSK9 [2]; IC50, Alexa FRET Plus): 500 to 5000 nM

COc1ccc(C[C@@H]2NC(=O)[C@H]([C@@H](C)O)NC(=O)[C@@H]3C[C@H](F)CN3C(=O)[C@H](Cc3c[nH]c4ccc(F)cc34)NC(=O)[C@H](Cc3c[nH]c4ccc(F)cc34)NC(=O)[C@@H](C)NC(=O)[C@H](CCCCN)NC(=O)CCC(=O)NCc3ccc(cc3)C[C@@H](C(N)=O)NC(=O)[C@]3(C)CCCN3C2=O)cc1 [Compound 097] (K[dA][Trp(5-F)][Trp(5-F)][Pro(cis-4-F)]TY(Me)[αMeP][Phe(4-CH2NH2)]-NH2; linker N-9 via Suc)
IC50 (PCSK9 [1]): 0.11 to 100 nM
IC50 (PCSK9 [2]; [3]): 500 to 5000 nM

NC(=O)[C@@H]1Cc2ccc(cc2)CNC(=O)CCCC(=O)NCC(=O)N[C@@H](Cc2c[nH]c3ccc(F)cc23)C(=O)N[C@@H](Cc2c[nH]c3ccc(F)cc23)C(=O)N[C@@H](CC(=O)O)C(=O)N[C@@H](Cc2cnc[nH]2)C(=O)N[C@@H](Cc2ccc(O)cc2)C(=O)N1 [Compound 437] (G[Trp(5-F)][Trp(5-F)]DHY[Phe(4-CH2NH2)]-NH2; linker N-7 via Glutaryl)
IC50 (PCSK9 [1]): 0.11 to 100 nM
IC50 (PCSK9 [2]; [3]): 100 to 500 nM

COc1ccc(C[C@@H]2NC(=O)[C@H]([C@H](C)O)NC(=O)[C@@H]3C[C@H](F)CN3C(=O)[C@H](Cc3c[nH]c4ccc(F)cc34)NC(=O)[C@H](Cc3c[nH]c4ccc(F)cc34)NC(=O)[C@@H](C)NC(=O)[C@H](CCCCN)NC(=O)CCC(=O)NCc3ccc(cc3)CCNC(=O)[C@]3(C)CCCN3C2=O)cc1 [Compound 111] (K[dA][Trp(5-F)][Trp(5-F)][Pro(cis-4-F)][aThr]Y(Me)[αMeP]; linker N-C via X45)
IC50 (PCSK9 [1]): 0.11 to 100 nM
IC50 (PCSK9 [2]; IC50, Alexa FRET Plus): 0.1 to 100 nM

COc1ccc(C[C@@H]2NC(=O)[C@H]([C@H](C)O)NC(=O)[C@H]3CCCN3C(=O)[C@H](Cc3c[nH]c4ccc(F)cc34)NC(=O)[C@H](Cc3c[nH]c4ccc(F)cc34)NC(=O)[C@@H](C)NC(=O)[C@H](CCCCN)NC(=O)CCSCc3cccc(c3)CSCCNC(=O)[C@]3(C)CCCN3C2=O)cc1 [Compound 103] (cyclo(K[dA][Trp(5-F)][Trp(5-F)][dP][aThr]Y(Me)[αMeP][X4]))
IC50 (PCSK9 [1]): 0.11 to 100 nM
IC50 (PCSK9 [2]; [3]): 500 to 5000 nM

COc1ccc(C[C@@H]2NC(=O)[C@H]([C@@H](C)O)NC(=O)[C@@H]3C[C@H](F)CN3C(=O)[C@H](Cc3c[nH]c4ccc(F)cc34)NC(=O)[C@H](Cc3c[nH]c4ccc(F)cc34)NC(=O)[C@@H](C)NC(=O)[C@H](CCCCN)NC(=O)CCCNC(=O)COc3ccc(cc3)C[C@@H](C(N)=O)NC(=O)[C@]3(C)CCCN3C2=O)cc1 [Compound 092] (K[dA][Trp(5-F)][Trp(5-F)][Pro(cis-4-F)]TY(Me)[αMeP]Y-NH2; linker N-9 via X44)
IC50 (PCSK9 [1]): 0.11 to 100 nM
IC50 (PCSK9 [2]; [3]): 0.1 to 100 nM

C[C@@]12CCCN1C(=O)[C@H](Cc1ccc(O)cc1)NC(=O)N[C@@H]1CCCc3ccc(cc31)C(=O)[C@H](Cc1c[nH]c3ccc(F)cc13)NC(=O)[C@H](Cc1c[nH]c3ccc(F)cc13)NC(=O)CNC(=O)[C@H](CCCCN)NC(=O)CCSCc1cccc(c1)CSC[C@@H](C(N)=O)NC2=O [Compound 140]
IC50 (PCSK9 [1]): 0.11 to 100 nM
IC50 (PCSK9 [2]; [3]): 100 to 500 nM

COc1ccc(C[C@@H]2NC(=O)[C@H]([C@H](C)O)NC(=O)[C@@H]3CCCc4cn(nn4)CC[C@H](NC(=O)[C@@H](C)NC(=O)[C@H](C)NC(=O)CCSCc4cccc(c4)CSCCNC(=O)[C@]4(C)CCCN4C2=O)C(=O)N[C@@H](Cc2c[nH]c4ccc(F)cc24)C(=O)N3)cc1 [Compound 525]
IC50 (PCSK9 [1]): 100 to 1000 nM
IC50 (PCSK9 [2]; [3]): 500 to 5000 nM

COc1ccc(C[C@@H]2NC(=O)[C@H]([C@@H](C)O)NC(=O)[C@@H]3C[C@H](F)CN3C(=O)[C@H](Cc3c[nH]c4ccc(F)cc34)NC(=O)[C@H](Cc3c[nH]c4ccc(F)cc34)NC(=O)[C@@H](C)NC(=O)[C@H](CCCCN)NC(=O)[C@@H](NC(C)=O)CCCCCc3ccc(cc3)C[C@@H](C(N)=O)NC(=O)[C@]3(C)CCCN3C2=O)cc1 [Compound 141]
IC50 (PCSK9 [1]): 100 to 1000 nM
IC50 (PCSK9 [2]; [3]): 500 to 5000 nM

CCCCCCCCCCCCCCCC(=O)N[C@@H](CCC(=O)NCCOCCOCC(=O)NCCOCCOCC(=O)NCCCC[C@@H]1NC(=O)[C@H](Cc2c[nH]c3ccc(F)cc23)NC(=O)[C@H](Cc2c[nH]c3ccc(F)cc23)CC(=O)[C@@H](C)NC(=O)[C@H](CCCCN)NC(=O)CCSCc2cccc(c2)CSC[C@@H](C(N)=O)NC(=O)[C@]2(C)CCCN2C(=O)[C@H](Cc2ccc(O)cc2)NC(=O)[C@H]([C@@H](C)O)NC1=O)C(=O)O [Compound 101] ([Mpa]K[X50][Trp(5-F)]K([AEEA-AEEA-γGlu-Palmitoyl])TY[αMeP]C-NH2; linker 1-9 via mXylylene)
IC50 (PCSK9 [1]): 0.11 to 100 nM
IC50 (PCSK9 [2]; [3]): 100 to 500 nM

COc1ccc(C[C@@H]2NC(=O)[C@H]([C@@H](C)O)NC(=O)[C@@H]3C[C@H](F)CN3C(=O)[C@H](Cc3c[nH]c4ccc(F)cc34)NC(=O)[C@H](Cc3c[nH]c4ccc(F)cc34)NC(=O)[C@@H](C)NC(=O)[C@H](CCCCN)NC(=O)[C@@H](NC(C)=O)CCC/C=C\Cc3ccc(cc3)C[C@@H](C(N)=O)NC(=O)[C@]3(C)CCCN3C2=O)cc1 [Compound 137]
IC50 (PCSK9 [1]): 21000 to 50000 nM
IC50 (PCSK9 [2]; [3]): 500 to 5000 nM

COc1ccc(C[C@@H]2NC(=O)[C@H]([C@@H](C)O)NC(=O)[C@@H]3C[C@H](F)CN3C(=O)[C@H](Cc3c[nH]c4ccc(F)cc34)NC(=O)[C@H](Cc3c[nH]c4ccc(F)cc34)NC(=O)[C@@H](C)NC(=O)[C@H](CCCCN)NC(=O)[C@@H](NC(=O)CC3CC3)CC(=O)NCCOc3ccc(cc3)C[C@@H](C(N)=O)NC(=O)[C@]3(C)CCCN3C2=O)cc1 [Compound 108] (X37-DK[dA][Trp(5-F)][Trp(5-F)][Pro(cis-4-F)]TY(Me)[αMeP][AEF]-NH2; lactam 1-10)
IC50 (PCSK9 [1]): 0.11 to 100 nM
IC50 (PCSK9 [2]; [3]): 500 to 5000 nM

CCCCCCCCCCCCCCCC(=O)N[C@@H](CCC(=O)NCCOCCOCC(=O)NCCOCCOCC(=O)NCCCC[C@H](NC(C)=O)C(=O)NCCOCCOCC(=O)N[C@@H]1CSCc2cccc(c2)CSC[C@@H](C(N)=O)NC(=O)[C@]2(C)CCCN2C(=O)[C@H](Cc2ccc(O)cc2)NC(=O)[C@H]([C@@H](C)O)NC(=O)N2C[C@@H](F)C[C@H]2C(=O)[C@H](Cc2c[nH]c3ccc(F)cc23)NC(=O)[C@H](Cc2c[nH]c3ccc(F)cc23)NC(=O)[C@@H](C)NC(=O)[C@H](C)NC1=O)C(=O)O [Compound 135]
IC50 (PCSK9 [1]): 0.11 to 100 nM
IC50 (PCSK9 [2]; [3]): 0.1 to 100 nM

COc1ccc(C[C@@H]2NC(=O)[C@H]([C@@H](C)O)NC(=O)[C@@H]3C[C@H](F)CN3C(=O)[C@H](Cc3c[nH]c4ccc(F)cc34)NC(=O)[C@H](Cc3c[nH]c4ccc(F)cc34)NC(=O)[C@@H](C)NC(=O)[C@H](CCCCN)NC(=O)[C@@H](NC(C)=O)CC(=O)NCc3ccc(cc3)CCNC(=O)[C@]3(C)CCCN3C2=O)cc1 [Compound 095] (Ac-DK[dA][Trp(5-F)][Trp(5-F)][Pro(cis-4-F)]TY(Me)[αMeP]; linker 1-C via NHCH2C6H4(p)CH2CH2NH)
IC50 (PCSK9 [1]): 100 to 1000 nM
IC50 (PCSK9 [2]; [3]): 500 to 5000 nM
